Assay results: article PMC9668830, “Identification of fungal lignocellulose-degrading biocatalysts secreted by Phanerochaete chrysosporium via activity-based protein profiling” (Communications Biology, 2022)

How the values were obtained:
Phchr2|126075 = test system: T1, Phchr2|126075; assay: continuous pNP release at […] nm, filtered K. lactis culture supernatant; type: biochemical, Phanerodontia chrysosporium; details: 50 mM TRIS pH 8, 20 mM KCl, 40 °C
T1 construct: gene phchr2_126075; filtered culture supernatant assayed

WP_074995790 = biological target: T2, WP_074995790 (Streptomyces misionensis, UniProt A0A1H5HEE9); assay: pNP release at […] nm; type: biochemical; details: 200 µM substrate, phosphate citrate buffer; only specific activity reported
T2 construct: gene SAMN04490357_7452; synthetic gene without secretion signal, pET20b, C-terminal His-tag, E. coli Rosetta DE3, Ni-IDA purified
T2 sequence (A0A1H5HEE9 63-752): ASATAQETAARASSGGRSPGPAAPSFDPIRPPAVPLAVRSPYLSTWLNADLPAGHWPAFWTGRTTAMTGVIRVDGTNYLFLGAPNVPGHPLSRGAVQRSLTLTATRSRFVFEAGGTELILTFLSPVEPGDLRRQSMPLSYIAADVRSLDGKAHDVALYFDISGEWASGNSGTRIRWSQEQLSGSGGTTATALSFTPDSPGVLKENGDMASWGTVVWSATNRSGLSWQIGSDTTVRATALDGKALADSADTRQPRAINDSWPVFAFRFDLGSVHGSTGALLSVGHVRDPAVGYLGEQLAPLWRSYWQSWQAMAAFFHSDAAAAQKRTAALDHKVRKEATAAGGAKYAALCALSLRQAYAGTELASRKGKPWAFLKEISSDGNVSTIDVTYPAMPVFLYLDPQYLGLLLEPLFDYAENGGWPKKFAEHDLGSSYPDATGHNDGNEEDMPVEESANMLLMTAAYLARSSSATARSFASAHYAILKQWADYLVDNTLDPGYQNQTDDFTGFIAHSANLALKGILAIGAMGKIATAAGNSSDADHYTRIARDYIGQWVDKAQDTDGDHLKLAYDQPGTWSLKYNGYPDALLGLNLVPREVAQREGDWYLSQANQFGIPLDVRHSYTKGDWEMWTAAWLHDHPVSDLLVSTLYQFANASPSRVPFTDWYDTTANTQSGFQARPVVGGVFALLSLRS

Phchr2|2915237 = test system: T3, Phchr2|2915237; assay: discontinuous pNP release at […] nm; type: biochemical, Phanerodontia chrysosporium; details: phosphate citrate buffer; pH and temperature of the kinetics not restated (optimum pH 5, 60 °C)
T3 construct: gene phchr2_2915237; synthetic gene from JGI model, secreted by Aspergillus oryzae, C-terminal 6xHis tag kept, Ni-purified

SMILES	Km (Phchr2|2915237) [µM]	further results
CC(=O)Oc1ccc([N+](=O)[O-])cc1 [pNP-acetate]	–	Km (Phchr2|126075): 670 µM
O=[N+]([O-])c1ccc(O[C@@H]2O[C@H](CO)[C@H](O)[C@H](O)[C@H]2O)cc1 [pNP-Gal]	–	pNP release at 410 nm (WP_074995790): we were able to detect a weak β-galactosidase activity
O=[N+]([O-])c1ccc(O[C@@H]2OC[C@@H](O)[C@H](O)[C@H]2O)cc1 [pNP-Xyl]	6980	–
O=[N+]([O-])c1ccc(O[C@@H]2O[C@H](CO)[C@@H](O)[C@H](O)[C@H]2O)cc1 [pNP-Glc]	1820	–
